Laboratory results published in ChEMBL document CHEMBL3112491, “3-(5-)-Amino-o-diarylisoxazoles: regioselective synthesis and antitubulin activity” (2014).

Experiments:
Format in all cases: functional
K562 = assay: Growth inhibition of human K562 cells after 48 hrs by sulforhodamine B assay; details: K562, 48 h
TK-10 = assay: Growth inhibition of human TK10 cells after 48 hrs by sulforhodamine B assay; details: TK-10, 48 h
NCI-H322M = assay: Growth inhibition of human NCI-H322M cells after 48 hrs by sulforhodamine B assay
SK-MEL-5 = assay: Growth inhibition of human SK-MEL-5 cells after 48 hrs by sulforhodamine B assay; details: SK-MEL-5, 48 h
[1] = Growth inhibition of human NCI-ADR-RES cells after 48 hrs by sulforhodamine B assay
[2] = Growth inhibition of human SF539 cells after 48 hrs by sulforhodamine B assay; details: SF-539, 48 h
[3] = Growth inhibition of human Hs 578T cells after 48 hrs by sulforhodamine B assay
SF-268 = assay: Growth inhibition of human SF268 cells after 48 hrs by sulforhodamine B assay; details: SF-268, 48 h
NCI-H522 = assay: Growth inhibition of human NCI-H522 cells after 48 hrs by sulforhodamine B assay; details: NCI-H522, 48 h
UACC-62 = assay: Growth inhibition of human UACC62 cells after 48 hrs by sulforhodamine B assay; details: UACC-62, 48 h
786-0 = assay: Growth inhibition of human 786-0 cells after 48 hrs by sulforhodamine B assay; details: 786-0, 48 h
[4] = Growth inhibition of human OVCAR5 cells after 48 hrs by sulforhodamine B assay; details: OVCAR-5, 48 h
SK-MEL-28 = assay: Growth inhibition of human SK-MEL-28 cells after 48 hrs by sulforhodamine B assay; details: SK-MEL-28, 48 h
A498 = assay: Growth inhibition of human A498 cells after 48 hrs by sulforhodamine B assay; details: A498, 48 h
COLO 205 = assay: Growth inhibition of human COLO205 cells after 48 hrs by sulforhodamine B assay; details: COLO 205, 48 h
CCRF-CEM = assay: Growth inhibition of human CCRF-CEM cells after 48 hrs by sulforhodamine B assay
BT-549 = assay: Growth inhibition of human BT549 cells after 48 hrs by sulforhodamine B assay; details: BT-549, 48 h
A549 = assay: Growth inhibition of human A549/ATCC cells after 48 hrs by sulforhodamine B assay; details: A549, 48 h
SNB-75 = assay: Growth inhibition of human SNB75 cells after 48 hrs by sulforhodamine B assay; details: SNB-75, 48 h
Malme-3M = assay: Growth inhibition of human MALME-3M cells after 48 hrs by sulforhodamine B assay
ACHN = assay: Growth inhibition of human ACHN cells after 48 hrs by sulforhodamine B assay
MDA-MB-231 = assay: Growth inhibition of human MDA-MB-231 cells after 48 hrs by sulforhodamine B assay; details: MDA-MB-231, 48 h
MCF7 = assay: Growth inhibition of human MCF7 cells after 48 hrs by sulforhodamine B assay; details: MCF7, 48 h
SR = assay: Growth inhibition of human SR cells after 48 hrs by sulforhodamine B assay
SF-295 = assay: Growth inhibition of human SF295 cells after 48 hrs by sulforhodamine B assay; details: SF-295, 48 h
HCT-116 = assay: Growth inhibition of human HCT116 cells after 48 hrs by sulforhodamine B assay; details: HCT-116, 48 h
Paracentrotus lividus [5] = assay: Microtubule destabilizing activity in sea urchin free-swimming blastula assessed as embryo spinning treated at 9 to 10 hrs post-fertilization measured after 0.15 to 15 hrs
IGROV-1 = assay: Growth inhibition of human IGROV1 cells after 48 hrs by sulforhodamine B assay; details: IGROV-1, 48 h
M14 = assay: Growth inhibition of human M14 cells after 48 hrs by sulforhodamine B assay; details: M14, 48 h
[6] = Growth inhibition of human UACC257 cells after 48 hrs by sulforhodamine B assay; details: UACC-257, 48 h
[7] = Growth inhibition of human UO31 cells after 48 hrs by sulforhodamine B assay; details: UO-31, 48 h
HL-60(TB) = assay: Growth inhibition of human HL-60(TB) cells after 48 hrs by sulforhodamine B assay; details: HL-60, 48 h
KM12 = assay: Growth inhibition of human KM12 cells after 48 hrs by sulforhodamine B assay; details: KM12, 48 h
MDA-MB-468 = assay: Growth inhibition of human MDA-MB-468 cells after 48 hrs by sulforhodamine B assay; details: MDA-MB-468, 48 h
MOLT-4 = assay: Growth inhibition of human MOLT4 cells after 48 hrs by sulforhodamine B assay; details: MOLT-4, 48 h
OVCAR-3 = assay: Growth inhibition of human OVCAR3 cells after 48 hrs by sulforhodamine B assay; details: OVCAR-3, 48 h
CAKI-1 = assay: Growth inhibition of human CAKI-1 cells after 48 hrs by sulforhodamine B assay; details: CAKI-1, 48 h
SNB-19 = assay: Growth inhibition of human SNB19 cells after 48 hrs by sulforhodamine B assay; details: SNB-19, 48 h
SW-620 = assay: Growth inhibition of human SW620 cells after 48 hrs by sulforhodamine B assay; details: SW-620, 48 h
[8] = Growth inhibition of human OVCAR4 cells after 48 hrs by sulforhodamine B assay; details: OVCAR-4, 48 h
MDA-MB-435 = assay: Growth inhibition of human MDA-MB-435 cells after 48 hrs by sulforhodamine B assay; details: MDA-MB-435, 48 h
SK-OV-3 = assay: Growth inhibition of human SKOV3 cells after 48 hrs by sulforhodamine B assay; details: SK-OV-3, 48 h
DU-145 = assay: Growth inhibition of human DU145 cells after 48 hrs by sulforhodamine B assay; details: DU-145, 48 h
Paracentrotus lividus [9] = assay: Antimitotic activity in sea urchin fertilized egg assessed as cleavage alteration treated at 8 to 20 mins post-fertilization measured at 2.5 to 5.5 hrs post-fertilization
HOP-62 = assay: Growth inhibition of human HOP62 cells after 48 hrs by sulforhodamine B assay; details: HOP-62, 48 h
NCI-H460 = assay: Growth inhibition of human NCI-H460 cells after 48 hrs by sulforhodamine B assay; details: NCI-H460, 48 h
[10] = Growth inhibition of human RXF393 cells after 48 hrs by sulforhodamine B assay; details: RXF 393, 48 h
[11] = Growth inhibition of human HCC2998 cells after 48 hrs by sulforhodamine B assay; details: HCC 2998, 48 h
SN12C = assay: Growth inhibition of human SN12C cells after 48 hrs by sulforhodamine B assay
NCI-H23 = assay: Growth inhibition of human NCI-H23 cells after 48 hrs by sulforhodamine B assay; details: NCI-H23, 48 h
Paracentrotus lividus [12] = assay: Antimitotic activity in sea urchin fertilized egg assessed as cleavage arrest treated at 8 to 20 mins post-fertilization measured at 2.5 to 5.5 hrs post-fertilization
HCT-15 = assay: Growth inhibition of human HCT15 cells after 48 hrs by sulforhodamine B assay; details: HCT-15, 48 h
T47D = assay: Growth inhibition of human T47D cells after 48 hrs by sulforhodamine B assay
PC-3 = assay: Growth inhibition of human PC3 cells after 48 hrs by sulforhodamine B assay; details: PC-3, 48 h
RPMI-8226 = assay: Growth inhibition of human RPMI8226 cells after 48 hrs by sulforhodamine B assay; details: RPMI-8226, 48 h
HT-29 = assay: Growth inhibition of human HT-29 cells after 48 hrs by sulforhodamine B assay; details: HT-29, 48 h
NCI-H226 = assay: Growth inhibition of human NCI-H226 cells after 48 hrs by sulforhodamine B assay; details: NCI-H226, 48 h
OVCAR-8 = assay: Growth inhibition of human OVCAR8 cells after 48 hrs by sulforhodamine B assay; details: OVCAR-8, 48 h
U-251 = assay: Growth inhibition of human U251 cells after 48 hrs by sulforhodamine B assay; details: U-251, 48 h
[13] = Growth inhibition of human EKVX cells after 48 hrs by sulforhodamine B assay
LOX IMVI = assay: Growth inhibition of human LOXIMVI cells after 48 hrs by sulforhodamine B assay
SK-MEL-2 = assay: Growth inhibition of human SK-MEL-2 cells after 48 hrs by sulforhodamine B assay; details: SK-MEL-2, 48 h
[14] = Growth inhibition of human HOP92 cells after 48 hrs by sulforhodamine B assay; details: HOP-92, 48 h

COc1ccc(-c2noc(N)c2-c2cc(OC)c3c(c2)OCO3)cc1
GI50 (K562): 0.404 µM
GI50 (TK-10): 6.36 µM
GI50 (NCI-H322M): 6.66 µM
GI50 (SK-MEL-5): 3.36 µM
GI50 [1]: 0.563 µM
GI50 [2]: 1.69 µM
GI50 [3]: 2.81 µM
GI50 (SF-268): 5 µM
GI50 (NCI-H522): 1.02 µM
GI50 (UACC-62): 5.1 µM
GI50 (786-0): 5.46 µM
GI50 [4]: 5.01 µM
GI50 (SK-MEL-28): 6.79 µM
GI50 (A498): 1.31 µM
GI50 (COLO 205): 1.85 µM
GI50 (CCRF-CEM): 1.02 µM
GI50 (BT-549): 3.4 µM
GI50 (A549): 2.73 µM
GI50 (SNB-75): 1.81 µM
GI50 (Malme-3M): 9.66 µM
GI50 (ACHN): 6.21 µM
GI50 (MDA-MB-231): 2.35 µM
GI50 (MCF7): 0.798 µM
GI50 (SR): 0.454 µM
GI50 (SF-295): 2.8 µM
GI50 (HCT-116): 2.44 µM
EC (Paracentrotus lividus [5]): >5 µM
GI50 (IGROV-1): 4.86 µM
GI50 (M14): 1.3 µM
GI50 [6]: 6.68 µM
GI50 [7]: 5.9 µM
GI50 (HL-60(TB)): 1.29 µM
GI50 (KM12): 1.58 µM
GI50 (MDA-MB-468): 9.66 µM
GI50 (MOLT-4): 1.28 µM
GI50 (OVCAR-3): 2.63 µM
GI50 (CAKI-1): 2.78 µM
GI50 (SNB-19): 20.4 µM
GI50 (SW-620): 0.726 µM
GI50 [8]: 22.8 µM
GI50 (MDA-MB-435): 0.237 µM
GI50 (SK-OV-3): 3.41 µM
GI50 (DU-145): 3.11 µM
EC (Paracentrotus lividus [9]): 0.2 µM
GI50 (HOP-62): 2.85 µM
GI50 (NCI-H460): 2.87 µM
GI50 [10]: 2.36 µM
GI50 [11]: 1.96 µM
GI50 (SN12C): 4.1 µM
GI50 (NCI-H23): 2.82 µM
EC (Paracentrotus lividus [12]): 2 µM
GI50 (HCT-15): 0.62 µM
GI50 (T47D): 2.75 µM
GI50 (PC-3): 3.29 µM
GI50 (RPMI-8226): 2.91 µM
GI50 (HT-29): 1.33 µM
GI50 (NCI-H226): 13.7 µM
GI50 (OVCAR-8): 3.62 µM

COc1ccc(-c2onc(N)c2-c2cc(OC)c3c(c2)OCO3)cc1
GI50 (K562): 0.519 µM
GI50 (TK-10): 12.3 µM
GI50 (NCI-H322M): 5.98 µM
GI50 (SK-MEL-5): 2.45 µM
GI50 (U-251): 2.31 µM
GI50 [1]: 0.684 µM
GI50 [2]: 3.25 µM
GI50 [3]: 2.94 µM
GI50 (SF-268): 13.3 µM
GI50 (NCI-H522): 0.796 µM
GI50 (UACC-62): 2.45 µM
GI50 (786-0): 6.56 µM
GI50 [13]: 6.58 µM
GI50 [4]: 8.8 µM
GI50 (SK-MEL-28): 5.62 µM
GI50 (A498): 1.81 µM
GI50 (COLO 205): 2.44 µM
GI50 (CCRF-CEM): 2.47 µM
GI50 (BT-549): 2.43 µM
GI50 (A549): 2.74 µM
GI50 (SNB-75): 1.75 µM
GI50 (Malme-3M): 8.51 µM
GI50 (ACHN): 6.74 µM
GI50 (MDA-MB-231): 3.75 µM
GI50 (MCF7): 0.962 µM
GI50 (SR): 0.449 µM
GI50 (SF-295): 2.32 µM
GI50 (LOX IMVI): 3.26 µM
GI50 (HCT-116): 2.01 µM
EC (Paracentrotus lividus [5]): >10 µM
GI50 (IGROV-1): 10.6 µM
GI50 (M14): 1.4 µM
GI50 [6]: 3.16 µM
GI50 [7]: 14.3 µM
GI50 (HL-60(TB)): 1.3 µM
GI50 (KM12): 2.23 µM
GI50 (MDA-MB-468): 0.538 µM
GI50 (MOLT-4): 3.28 µM
GI50 (OVCAR-3): 2.39 µM
GI50 (CAKI-1): 3.69 µM
GI50 (SK-MEL-2): 1.32 µM
GI50 (SNB-19): 6.74 µM
GI50 (SW-620): 0.495 µM
GI50 [8]: 16.1 µM
GI50 (MDA-MB-435): 0.29 µM
GI50 (SK-OV-3): 4.2 µM
GI50 (DU-145): 3.99 µM
EC (Paracentrotus lividus [9]): 0.2 µM
GI50 (HOP-62): 4.59 µM
GI50 (NCI-H460): 3.04 µM
GI50 [10]: 2.94 µM
GI50 [11]: 2.77 µM
GI50 (SN12C): 5.13 µM
GI50 (NCI-H23): 3.08 µM
EC (Paracentrotus lividus [12]): >4 µM
GI50 [14]: 6.35 µM
GI50 (HCT-15): 1.14 µM
GI50 (T47D): 4.41 µM
GI50 (PC-3): 4.28 µM
GI50 (RPMI-8226): 4.07 µM
GI50 (HT-29): 1.49 µM
GI50 (NCI-H226): 28 µM
GI50 (OVCAR-8): 4.26 µM
